Experimental data as given in patent US7635716B2, “Substituted cyclopentanes or cyclopentanones as therapeutic agents” (Allergan, Inc., priority 2005, dated 2009).
Read-outs that look alike come from different tables or passages of the source.

Legend:
normotensive dogs [1] = assay: Ocular surface hyperemia (OSH) in normotensive dogs; assay type: in vivo, dog; set-up: maximum OSH score: scale not given here; conditions: dosing once daily for 5 days
Protocol: (§1) (Z)-7-[(1R,2S,3R,5R)-5-Chloro-2-(3,5-dichloro-phenoxymethyl)-3-hydroxy-cyclopentyl]-hept-5-enoic acid (15b) was tested at multiple concentrations in normotensive dogs, dosing once daily for 5 days. At 0.05%, the maximum IOP decrease from baseline was 4.3 mmHg (30%) at 6 h; the maximum OSH score was 0.6 at 6 h. […] This compound was also tested in laser-induced hypertensive monkeys, using one single day dose. At 0.1%, the maximum IOP decrease from baseline was 6 mmHg (19%) at 6 h.
(§2) (Z)-7-[(1R,2S,3R,5R)-5-Chloro-2-(3,5-dichloro-phenoxymethyl)-3-hydroxy-cyclopentyl]-hept-5-enoic acid isopropyl ester (42b) was tested in normotensive dogs at 0.05%, dosing once daily for 5 days. The maximum intraocular pressure (IOP) decrease from baseline was 3 mmHg (19%) at 6 h; the maximum ocular surface hyperemia (OSH) score was 0.6 at 74 h. This compound was also tested in laser-induced hypertensive monkeys, using one single day dose. At 0.01%, the maximum IOP decrease from baseline was 6 mmHg (16%) at 6 h.

[2] = system: laser-induced hypertensive monkeys; assay: Intraocular pressure (IOP) in laser-induced hypertensive monkeys; assay type: in vivo, monkey; conditions: Primates, topical, one single day dose, read-out: maximum IOP decrease from baseline (percent)
Protocol: as §1, §2

normotensive dogs [3] = assay: Intraocular pressure (IOP) in normotensive dogs; assay type: in vivo, dog; conditions: Canis lupus familiaris, topical, 120 h, dosing once daily for 5 days, read-out: maximum IOP decrease from baseline (percent)
Protocol: as §1, §2

hEP3A/Gqi5 = target: T1, hEP3A/Gqi5 (Homo sapiens, UniProt P43115); assay: FLIPR calcium signal, HEK-293(EBNA) cells; assay type: cell-based
T1 construct: expressed in transfected cells; host or cells: HEK-293(EBNA) cells
T1 sequence (P43115 1-390): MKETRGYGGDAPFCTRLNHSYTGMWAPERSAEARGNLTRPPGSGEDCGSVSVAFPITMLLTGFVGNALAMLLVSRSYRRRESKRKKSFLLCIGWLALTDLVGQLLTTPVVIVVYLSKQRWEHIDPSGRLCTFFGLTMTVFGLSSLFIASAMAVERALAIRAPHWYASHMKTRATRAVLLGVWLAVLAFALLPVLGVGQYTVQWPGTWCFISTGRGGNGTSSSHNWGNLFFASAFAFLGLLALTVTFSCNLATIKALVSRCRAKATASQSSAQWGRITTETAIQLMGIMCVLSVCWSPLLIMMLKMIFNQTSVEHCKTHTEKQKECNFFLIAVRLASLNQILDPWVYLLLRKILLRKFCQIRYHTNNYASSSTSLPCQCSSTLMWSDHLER
Protocol: (§3) HEK-293(EBNA) cells, stably expressing one type or subtype of recombinant human prostaglandin receptors (prostaglandin receptors expressed: hDP/Gqs5; hEP1; hEP2/Gqs5; hEP3A/Gqi5; hEP4/Gqs5; hFP; hIP; hTP), were cultured in 100 mm culture dishes in high-glucose DMEM medium containing 10% fetal bovine serum, 2 mM 1-glutamine, 250 μg/ml geneticin (G418) and 200 μg/ml hygromycin B as selection markers, and 100 units/ml penicillin G, 100 μg/ml streptomycin and 0.25 μg/ml amphotericin B.
(§4) Cells were seeded at a density of 5×10^4 cells per well in Biocoat® Poly-D-lysine-coated black-wall, clear-bottom 96-well plates (Becton-Dickinson) and allowed to attach overnight in an incubator at 37° C. Cells were then washed two times with HBSS-HEPES buffer (Hanks Balanced Salt Solution without bicarbonate and phenol red, 20 mM HEPES, pH 7.4) using a Denley Cellwash plate washer (Labsystems). After 45 minutes of dye-loading in the dark, using the calcium-sensitive dye Fluo-4 AM at a final concentration of 2 μM, plates were washed four times with HBSS-HEPES buffer to remove excess dye leaving 100 μl in each well. Plates were re-equilibrated to 37° C. for a few minutes.
(§5) Cells were excited with an Argon laser at 488 nm, and emission was measured through a 510-570 nm bandwidth emission filter (FLIPR™, Molecular Devices, Sunnyvale, Calif.). Drug solution was added in a 50 μl volume to each well to give the desired final concentration. The peak increase in fluorescence intensity was recorded for each well. On each plate, four wells each served as negative (HBSS-HEPES buffer) and positive controls (standard agonists: BW245C (hDP); PGE2 (hEP1; hEP2/Gqs5; hEP3A/Gqi5; hEP4/Gqs5); PGF2. (hFP); carbacyclin (hIP); U-46619 (hTP), depending on receptor). The peak fluorescence change in each drug-containing well was then expressed relative to the controls.
(§6) Compounds were tested in a high-throughput (HTS) or concentration-response (CoRe) format. In the HTS format, forty-four compounds per plate were examined in duplicates at a concentration of 10^−5 M. To generate concentration-response curves, four compounds per plate were tested in duplicates in a concentration range between 10^−5 and 10^−11 M. The duplicate values were averaged. In either, HTS or CoRe format each compound was tested on at least 3 separate plates using cells from different passages to give an n≧3.

hEP4/Gqs5 = target: T2, hEP4/Gqs5 (Homo sapiens, UniProt P35408); assay: FLIPR calcium signal, HEK-293(EBNA) cells; assay type: cell-based
T2 construct: expressed in transfected cells; host or cells: HEK-293(EBNA) cells
T2 sequence (P35408 whole entry): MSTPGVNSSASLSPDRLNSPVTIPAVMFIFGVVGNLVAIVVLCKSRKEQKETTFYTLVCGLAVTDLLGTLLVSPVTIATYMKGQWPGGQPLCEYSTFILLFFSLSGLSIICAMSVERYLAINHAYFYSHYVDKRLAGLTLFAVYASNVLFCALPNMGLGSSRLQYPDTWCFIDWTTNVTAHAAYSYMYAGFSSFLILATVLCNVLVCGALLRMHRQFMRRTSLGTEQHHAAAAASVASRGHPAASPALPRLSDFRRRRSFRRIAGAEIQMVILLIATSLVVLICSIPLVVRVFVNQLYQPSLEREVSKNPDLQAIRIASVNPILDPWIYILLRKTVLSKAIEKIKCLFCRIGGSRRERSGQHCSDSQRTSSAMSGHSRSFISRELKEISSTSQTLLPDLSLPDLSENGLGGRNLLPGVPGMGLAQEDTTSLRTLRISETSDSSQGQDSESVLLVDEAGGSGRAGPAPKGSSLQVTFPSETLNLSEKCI
Protocol: as §3, §4, §5, §6

hEP1 = target: T3, hEP1 (Homo sapiens, UniProt P34995); assay: FLIPR calcium signal, HEK-293(EBNA) cells; assay type: cell-based
T3 construct: expressed in transfected cells; host or cells: HEK-293(EBNA) cells
T3 sequence (P34995 1-402): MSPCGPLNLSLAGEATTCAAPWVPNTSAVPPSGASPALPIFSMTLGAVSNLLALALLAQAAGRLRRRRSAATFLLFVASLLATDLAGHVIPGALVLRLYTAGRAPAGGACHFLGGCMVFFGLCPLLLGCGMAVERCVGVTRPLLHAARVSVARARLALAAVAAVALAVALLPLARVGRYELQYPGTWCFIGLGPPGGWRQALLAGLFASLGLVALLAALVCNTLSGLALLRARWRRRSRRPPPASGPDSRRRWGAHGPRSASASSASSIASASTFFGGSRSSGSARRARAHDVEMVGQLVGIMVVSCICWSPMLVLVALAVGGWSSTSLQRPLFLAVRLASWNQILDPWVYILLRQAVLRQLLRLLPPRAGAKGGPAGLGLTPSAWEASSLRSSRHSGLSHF
Protocol: as §3, §4, §5, §6

hEP2/Gqs5 = target: T4, hEP2/Gqs5 (Homo sapiens, UniProt P43116); assay: FLIPR calcium signal, HEK-293(EBNA) cells; assay type: cell-based
T4 construct: expressed in transfected cells; host or cells: HEK-293(EBNA) cells
T4 sequence (P43116 whole entry): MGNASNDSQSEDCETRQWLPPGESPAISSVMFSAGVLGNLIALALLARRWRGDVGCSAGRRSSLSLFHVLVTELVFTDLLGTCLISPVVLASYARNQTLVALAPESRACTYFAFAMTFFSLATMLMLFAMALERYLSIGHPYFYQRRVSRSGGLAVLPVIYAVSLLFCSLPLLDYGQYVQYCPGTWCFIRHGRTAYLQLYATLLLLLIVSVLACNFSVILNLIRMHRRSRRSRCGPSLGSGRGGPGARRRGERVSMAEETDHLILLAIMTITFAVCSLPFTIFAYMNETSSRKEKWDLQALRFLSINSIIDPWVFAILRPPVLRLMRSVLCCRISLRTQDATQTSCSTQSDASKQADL
Protocol: as §3, §4, §5, §6

hDP/Gqs5 = target: T5, hDP/Gqs5 (Homo sapiens, UniProt Q13258); assay: FLIPR calcium signal, HEK-293(EBNA) cells; assay type: cell-based
T5 construct: expressed in transfected cells; host or cells: HEK-293(EBNA) cells
T5 sequence (Q13258 1-359): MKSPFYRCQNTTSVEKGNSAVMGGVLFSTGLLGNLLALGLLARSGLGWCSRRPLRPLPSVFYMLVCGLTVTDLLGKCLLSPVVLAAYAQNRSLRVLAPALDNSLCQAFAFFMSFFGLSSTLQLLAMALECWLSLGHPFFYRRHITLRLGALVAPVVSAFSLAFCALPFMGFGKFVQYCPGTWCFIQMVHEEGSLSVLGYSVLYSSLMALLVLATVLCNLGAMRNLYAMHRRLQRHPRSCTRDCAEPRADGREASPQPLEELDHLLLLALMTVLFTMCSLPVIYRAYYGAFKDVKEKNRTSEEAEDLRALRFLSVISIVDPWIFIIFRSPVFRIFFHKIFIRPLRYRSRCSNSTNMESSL
Protocol: as §3, §4, §5, §6

[4] = Table 1, second part, quantity not given, values match functional data (EC50) of first part, read-out: Other Receptors hEP3
[5] = Table 1, first part, triplicate, read-out: functional data (EC50) hEP4
[6] = Table 1, second part, read-out: hEP4 flipr EC50
[7] = Table 1, first part, triplicate, read-out: functional data (EC50) hEP2
[8] = Table 1, second part, read-out: hEP2 flipr EC50

Row | maximum OSH score (normotensive dogs [1]; 0.1%) | time of maximum OSH score (normotensive dogs [1]; 0.1%) [h] | EC50 (hEP4/Gqs5; [5]) [µM] | EC50 (hEP4/Gqs5; [6]) [µM] | EC50 (hEP2/Gqs5; [7]) [µM] | EC50 (hEP2/Gqs5; [8]) [µM] | SMILES | inhibition in vivo at 0.1 % [2] [%] | inhibition in vivo at 0.1 % (normotensive dogs [3]) [%] | other results
1 | 0.6 | 30 |  |  |  |  | CC(C)OC(=O)CCC/C=C\C[C@@H]1[C@@H](COc2ccc(CO)cc2)[C@H](O)C[C@H]1Cl [Example 71, (Z)-7-[(1R,2S,3R,5R)-5-Chloro-3-hydroxy-2-(4-hydroxymethyl-phenoxymethyl)-cyclopentyl]-hept-5-enoic acid isopropyl ester] | 16 | 33 | 
2 | 0.8 | 54 |  |  |  |  | O=C(O)CCC/C=C\C[C@@H]1[C@@H](COc2cccc3ccccc23)[C@H](O)C[C@H]1Cl [Example 19, (Z)-7-[(1R,2S,3R,5R)-5-Chloro-3-hydroxy-2-(naphthalen-1-yloxymethyl)-cyclopentyl]-hept-5-enoic acid] | 31 | 41 | 
3 |  |  |  |  |  |  | CC(C)OC(=O)CCC/C=C\C[C@@H]1[C@@H](COc2cc(Cl)cc(Cl)c2)[C@H](O)C[C@H]1Cl [Example 67, (Z)-7-[(1R,2S,3R,5R)-5-Chloro-2-(3,5-dichloro-phenoxymethyl)-3-hydroxy-cyclopentyl]-hept-5-enoic acid isopropyl ester] |  |  | maximum OSH score (normotensive dogs [1]; 0.05%): 0.6; time of maximum OSH score (normotensive dogs [1]; 0.05%): 74 h; inhibition in vivo at 0.01 % ([2]; 0.01%): 16%; inhibition in vivo at 0.05 % (normotensive dogs [3]; 0.05%): 19%
4 |  |  |  |  |  |  | O=C(O)CCC/C=C\C[C@@H]1[C@@H](COc2cc(C(F)(F)F)cc(Cl)c2F)[C@H](O)C[C@H]1Cl [Example 41, (Z)-7-[(1R,2S,3R,5R)-5-Chloro-2-(3-chloro-2-fluoro-5-trifluoromethyl-phenoxymethyl)-3-hydroxy-cyclopentyl]-hept-5-enoic acid] |  |  | EC50 (hEP3A/Gqi5; [4]): 1.64 µM
5 |  |  | > 10 | > 10 | 1.66 |  | COC(=O)CCCCCC[C@@H]1[C@@H](COc2cc(Cl)cc(Cl)c2)[C@H](O)C[C@H]1Cl [Example 13, 7-[(1R,2S,3R,5R)-5-Chloro-2-(3,5-dichloro-phenoxymethyl)-3-hydroxy-cyclopentyl]-heptanoic acid methyl ester] |  |  | EC50 (hEP1; Table 1, first part, triplicate, read-out: functional data (EC50) hEP1): > 10 µM; EC50 (hEP1; Table 1, second part, quantity not given, values match functional data (EC50) of first part, read-out: Other Receptors hEP1): > 10 µM; EC50 (hEP3A/Gqi5; Table 1, first part, data represents a single experiment, read-out: functional data (EC50) hEP3A*): > 10 µM; EC50 (hEP3A/Gqi5; [4]): > 10 µM; EC50 (hDP/Gqs5; Table 1, first part, triplicate, read-out: functional data (EC50) hDP): > 10 µM; EC50 (hDP/Gqs5; Table 1, second part, quantity not given, values match functional data (EC50) of first part, read-out: Other Receptors hDP): > 10 µM
6 | 0.6 | 98 |  |  |  |  | O=C(O)CCC/C=C\C[C@@H]1[C@@H](COc2ccc(CO)cc2)[C@H](O)C[C@H]1Cl [Example 43, (Z)-7-[(1R,2S,3R,5R)-5-Chloro-3-hydroxy-2-(4-hydroxymethyl-phenoxymethyl)-cyclopentyl]-hept-5-enoic acid] | 6 | 20 | 
7 | 0.9 | 52 |  |  |  |  | O=C(O)CCC/C=C\C[C@@H]1[C@@H](COc2cc(C(F)(F)F)cc(C(F)(F)F)c2)[C@H](O)C[C@H]1Cl [Example 15, (Z)-7-[(1R,2S,3R,5R)-2-(3,5-Bis-trifluoromethyl-phenoxymethyl)-5-chloro-3-hydroxy-cyclopentyl]-hept-5-enoic acid] | 30 | 35 | 
8 |  |  | > 10 | > 10 | > 10 | > 10 | COC(=O)CCC/C=C\C[C@H]1C(=O)C=C[C@@H]1COc1ccccc1 [Example 1, (Z)-7-((1R,5S)-2-Oxo-5-phenoxymethyl-cyclopent-3-enyl)-hept-5-enoic acid methyl ester] |  |  | 
9 |  |  | > 10 | > 10 | > 10 | > 10 | COC(=O)CCC/C=C\C[C@@H]1[C@@H](COc2ccccc2)[C@H](O)C[C@H]1Cl [Example 7, (Z)-7-((1R,2S,3R,5R)-5-Chloro-3-hydroxy-2-phenoxymethyl-cyclopentyl)-hept-5-enoic acid methyl ester] |  |  | 
10 |  |  | > 10 | > 10 | > 10 | > 10 | COC(=O)CCCCCC[C@H]1C(=O)CC[C@@H]1COc1ccccc1 [Example 5, 7-((1R,5S)-2-Oxo-5-phenoxymethyl-cyclopentyl)-heptanoic acid methyl ester] |  |  | 
11 |  |  | > 10 | > 10 |  |  | COC(=O)CCC/C=C\C[C@H]1C(=O)C[C@@H](O)[C@@H]1COc1ccccc1 [Example 2, (Z)-7-((1R,2S,3R)-3-Hydroxy-5-oxo-2-phenoxymethyl-cyclopentyl)-hept-5-enoic acid methyl ester] |  |  | 
12 |  |  | 3.71 |  | > 10 | > 10 | COC(=O)CCCCCC[C@@H]1[C@@H](COc2ccccc2)[C@H](O)C[C@H]1Cl [Example 9, 7-((1R,2S,3R,5R)-5-Chloro-3-hydroxy-2-phenoxymethyl-cyclopentyl)-heptanoic acid methyl ester] |  |  | 
